Assay results as given in patent US8853219B2, “Compounds and compositions for cognition-enhancement, methods of making, and methods of treating” (NeuroSolis, Inc., priority 2010, dated 2014).
Numbering of substitutions follows the chain as printed.

Tests used:
[1] = target: T1, human muscarinic M1 receptors (Homo sapiens, UniProt P11229); test: Stimulation of inositol phosphate production in A9L cells, human M1 (IPOne TR-FRET); format: cell-based
T1 construct: host or cells: A9L cells
T1 sequence (P11229 1-460): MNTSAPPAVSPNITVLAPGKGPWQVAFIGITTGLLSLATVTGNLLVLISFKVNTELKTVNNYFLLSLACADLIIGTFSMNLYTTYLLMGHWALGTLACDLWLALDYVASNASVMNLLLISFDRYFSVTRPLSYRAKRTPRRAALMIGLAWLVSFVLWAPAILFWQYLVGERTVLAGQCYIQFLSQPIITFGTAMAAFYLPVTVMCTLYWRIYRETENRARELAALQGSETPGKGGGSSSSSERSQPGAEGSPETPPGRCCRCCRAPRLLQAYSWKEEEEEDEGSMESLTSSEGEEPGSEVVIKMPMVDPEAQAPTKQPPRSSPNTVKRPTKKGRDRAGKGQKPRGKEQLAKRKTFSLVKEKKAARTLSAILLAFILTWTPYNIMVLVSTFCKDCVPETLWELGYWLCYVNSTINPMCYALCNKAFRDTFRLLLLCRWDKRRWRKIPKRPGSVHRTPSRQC
Method: (§1) Muscarinic M1 and M3 agonist activity was evaluated by measuring the stimulation of inositol phosphate (IP) production in the presence of lithium chloride from A9L cells transfected with expression plasmids containing human muscarinic M1 and M3 receptors, respectively. The cell lines were a gift from Professor W Messer, and the methods were as described in Tejada F R et al. J. Med. Chem. 2006; 49: 7518-31 except that the assay was scaled down to run in 384 well plates, and IP was measured in the cell lysates using the non-isotopic IPOne TR-FRET assay (CIS-BIO, Inc).
(§2) Cells were grown to 90% confluence in 384 well hi-base plates (Greiner Bio-One), compounds were added at suitable concentrations in growth medium containing 10 mM LiCL, buffered with an extra 10 mM HEPES (pH7.4), and incubated for 60 minutes at 37° C. Cells were lysed and assayed for IP following the manufacturer's instructions.
(§3) The value for a full agonist is 100%, while partial agonists give values below 100%.

[2] = target: T2, human muscarinic M3 receptors (Homo sapiens, UniProt P20309); test: Stimulation of inositol phosphate production in A9L cells, human M3 (IPOne TR-FRET); format: cell-based
T2 construct: host or cells: A9L cells
Method: as §1, §2, §3

[3] = tested on: A-beta; test: A-beta in hippocampal microdialysate of Tg-2576 transgenic mice; format: in vivo, mouse; conditions: single dose
Description: These mice have high concentrations of A-beta in their brain tissue, thought to be the cause of neuron death in Alzheimer's disease, and accumulate amyloid plaques, recapitulating one of the hallmark pathological features of Alzheimer's disease.

[4] = tested on: Long Evans Hooded rats; test: In vivo measurement of salivation; set-up: species or system rat; conditions: anesthetized normal rats, dose-dependent between about 0.1 mg/kg and 1 mg/kg
Method: Suitable doses of test compounds or drug substances were administered using standard techniques to Long Evans Hooded rats weighing 225 to 350 grams, or CD-1 mice weighing 30 to 50 grams, which had been anesthetized using 2-3.5%% of isoflurane in oxygen. The animals were placed slightly head-down on an inclined, heated ramp. Rectal temperature was monitored using a thermocouple and the temperature of the heating pad was adjusted manually to maintain normal body temperature. Saliva was collected from the mouth by absorption onto pre-weighed slips of filter paper. The filter paper was changed periodically and the amount of saliva was measured by weighing the filter paper slips.

[5] = tested on: pooled male human liver microsomes; test: Metabolism by human liver microsomes; format: in vitro ADME; conditions: 6 hours incubation
Method: Compounds were incubated with pooled male human liver microsomes (BD Biosciences, #452172) and an NADP-regenerating system in a phosphate buffer (pH 7.4) for a total of 6 hours. Aliquots were removed every 2 hours, and 1% formic acid was added to halt the reaction. Samples were centrifuged, filtered through 0.2 micron spinfilter and the amount of each compound in the supernatants was quantitated using LC/MS/MS.

[6] = tested on: CD-I mice; test: Apomorphine induced climbing model of psychosis; format: in vivo, mouse
Method: As described in Costall et. al. European Journal of Pharmacology 1978, 50, 39. individual CD-I mice, 1-2 months old, were placed in a cylindrical wire mesh cage (13.2 cm high×13.2 cm diameter) constructed of steel wire 1 mm thick spaced at 1.2 cm^2. Cylinders were placed in a standard OptiMICE mouse cage (29×32×9×29 cm wide and 14 cm high) with adequate wood chip bedding provided. Observations of climbing (defined as 3 or more paws off the ground) were carried out every 5 minutes at a duration of 1 minute for 30 minutes. Animals were injected subcutaneously under isoflurane anesthesia with test compounds, reference compounds, which included clozapine, haloperidol, olanzapine and xanomeline, or PBS as a control. This was followed 5 minutes later by 2 mg/kg apomorphine hydrochloride. All drugs were dissolved in PBS or a mixture of (by volume) 96% PBS and 4% hydroxypropyl-beta-cyclodextrin, and dosed at a rate of 5 ml per kilogram of body weight. Following injections, animals were replaced in the mesh cages and observed for climbing (defined as 3 or more paws off the ground) every 5 minutes for a duration of 1 minute for 60 minutes after dosing.

[7] = tested on: rats; test: Muscarinic effects in vivo (salivary flow) in rats dosed orally; set-up: species or system rat
[8] = target: T3, rat M3 receptors (Rattus norvegicus, UniProt P08483); test: PI turnover (inositol phosphate production) in M3-CHO cells; format: cell-based; conditions: mean Smax relative to mean Smax for carbachol (100)
T3 construct: host or cells: Chinese Hamster Ovary cells (M3-CHO)
Method: (§4) The medium was changed to 70 μL/well of inositol-free DMEM containing 2 mM glutamine, 10% FBS and 10 μCi/ml of [3H]-inositol (PE:cat #NET114A250UC), incubated overnight as above, then 100 μL of a solution of the test compound in HBSS containing 10 mM LiCl and 20 mM HEPES, pH 7.4 was added, incubation was continued for 60 min under the above conditions, and the test was stopped by removing the test compound and replacing with 100 μL of 50 mM formic acid in water at 4° C.

[9] = target: T4, rat M1 receptors (Rattus norvegicus, UniProt P08482); test: PI turnover (inositol phosphate production) in M1-CHO cells; format: cell-based; conditions: for Muscarinic agonist activity by PI turnover: cell lines expressing M1 and M3 subtypes
T4 construct: host or cells: Chinese Hamster Ovary cells (M1-CHO)
T4 sequence (P08482 1-460): T1 sequence (P11229 1-460) with A5V, T254S, P309S, R320K, A337G, I413V
Method: as §4

[10] = Blood and brain concentrations (rats) after oral gavage; format: in vivo, rat
Method: Long-Evans Hooded rats (Charles River: male, 250-350 g) were dosed with solutions of test compounds in PBS by oral gavage. At the desired time after dosing, the animals were anesthetized with isoflurane, and then euthanized by cervical dislocation. Blood was obtained by cardiac puncture, transferred to a 1.5 mL microcentrifuge tube containing 15U Heparin, and the plasma recovered after centrifugation. Brains were dissected, weighed, immediately chilled to 4° C., and homogenized using a PowerGen 125 homogenizer in five volumes of ice-cold 2% formic acid. Proteins were precipitated from plasma and brain homogenate with two and five volumes respectively of ice-cold 2% formic acid and clarified by centrifugation. The supernatant was ultra-filtered by centrifugation through a 3K MWCO spin column (Pall Life Sciences), following the manufacturer's instructions. The concentration of compound in the ultra-filtrate was subjected to reverse-phase liquid chromatography using a 150×2.1 mm Agilent C8 reverse-phase column on a Shimadzu Prominence LC, eluting the compounds with a gradient of 2% to 50% of acetonitrile+0.1% formic acid for compound MI-50,382, or an isocratic flow of 2% acetonitrile+0.1% formic acid for the rest of the compounds listed. The concentration of the compound in the column effluent was measured using an Applied Biosystems API-3200 triple quadrupole mass spectrometer equipped with an electrospray sample injection system. The counts of the characteristic parent and product ions of each test compound were converted to concentration units by comparison with a standard calibration curve.

[11] = Metabolites in serum and urine of dosed rats; format: in vivo; conditions: rat serum/plasma or urine
Method: Oxadiazoles disclosed herein as well as other oxadiazoles were investigated to determine the formation of metabolites. Animals were dosed, blood taken, serum prepared, serum proteins precipitated and ultrafiltrates prepared as described in Example 6. In separate experiments, urine was collected from rats for 16-24 hours after dosing, using standard metabolic cages. The urine container and collected urine were maintained at 4° C. Urine was lyophilized, taken back into water. The ultrafiltrate was prepared by adding formic acid to a final concentration of 1% to the urine samples, then filtered through a 0.2 um nylon membrane. The ultrafiltrate was subjected to LC-MS analysis. Instead of measuring the product ions in Q3, manual Q1 scans of the liquid chromatograph were undertaken, seeking parent ions of potential metabolites of the compounds. The criteria for identifying metabolites were as follows: (1) the ion should be present in the sera or urines of dosed rats, but not in sera or urines from non-dosed rats (2) the ion should be identifiable as a metabolic derivative of the dosed compound (e.g. loss of a functional chemical moiety, addition of a hydroxyl group or a glucuronic acid moiety, etc). Metabolites were determined not to be present if no compound meeting the above criteria could be detected in serum or urine.

T3 sequence (P08483 whole entry): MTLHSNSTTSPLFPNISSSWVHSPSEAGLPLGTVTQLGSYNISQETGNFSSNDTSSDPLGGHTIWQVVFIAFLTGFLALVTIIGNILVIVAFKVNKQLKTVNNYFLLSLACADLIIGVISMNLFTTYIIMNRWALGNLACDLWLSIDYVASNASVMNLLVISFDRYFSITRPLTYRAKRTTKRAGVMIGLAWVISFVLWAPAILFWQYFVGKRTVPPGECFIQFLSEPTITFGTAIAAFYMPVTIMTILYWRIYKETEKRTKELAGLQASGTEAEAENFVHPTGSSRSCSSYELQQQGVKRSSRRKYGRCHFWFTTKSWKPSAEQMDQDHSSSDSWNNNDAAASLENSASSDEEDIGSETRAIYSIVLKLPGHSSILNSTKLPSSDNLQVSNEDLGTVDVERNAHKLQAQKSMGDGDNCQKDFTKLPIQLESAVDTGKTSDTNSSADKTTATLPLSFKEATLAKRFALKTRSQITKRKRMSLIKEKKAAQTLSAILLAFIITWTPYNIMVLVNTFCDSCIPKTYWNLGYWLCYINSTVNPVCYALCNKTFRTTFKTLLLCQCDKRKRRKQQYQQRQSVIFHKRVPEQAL
T2 sequence (P20309 whole entry): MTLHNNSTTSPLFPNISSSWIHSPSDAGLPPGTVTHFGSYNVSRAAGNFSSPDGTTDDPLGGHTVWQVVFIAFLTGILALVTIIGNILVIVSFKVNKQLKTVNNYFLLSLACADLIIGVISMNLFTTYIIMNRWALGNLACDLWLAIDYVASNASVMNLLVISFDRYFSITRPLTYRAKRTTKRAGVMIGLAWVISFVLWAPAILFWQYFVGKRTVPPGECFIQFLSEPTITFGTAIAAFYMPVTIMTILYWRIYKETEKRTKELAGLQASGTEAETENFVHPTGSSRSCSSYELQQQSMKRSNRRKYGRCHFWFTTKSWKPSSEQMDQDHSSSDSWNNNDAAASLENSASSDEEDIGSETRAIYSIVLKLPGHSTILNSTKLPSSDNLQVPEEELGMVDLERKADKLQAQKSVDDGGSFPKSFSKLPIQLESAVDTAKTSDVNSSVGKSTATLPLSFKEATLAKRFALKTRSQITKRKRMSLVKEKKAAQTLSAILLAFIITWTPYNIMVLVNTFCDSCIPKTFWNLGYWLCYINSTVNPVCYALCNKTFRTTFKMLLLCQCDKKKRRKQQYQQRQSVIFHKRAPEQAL

| Functional selectivity for M1 subtype by PI turnover ([9]; M1 versus M3 cell lines) | Structure (SMILES) | PAMPA units | huM1/A9L ED50 relative to CCh [1] | huM3/A9L ED50 relative to CCh [2] | Reduction of concentration of A-beta 1-40 in hippocampal microdialysate [3] | Reduction of concentration of A-beta 1-42 in hippocampal microdialysate [3] | Salivation [4] | Metabolism in human liver microsomes [5] | Climbing Mean (secs) ([6]; Cmpd 3 + APO + N-Methyl Scopolamine 0.3 mg/kg) | Climbing Mean (secs) ([6]; Cmpd 3 + APO + scopolamine 0.3 mg/kg) | Potency in inhibiting climbing relative to reference antipsychotic ([6]; sc) | Salivary flow ([7]; rats, dosed orally) | M3/CHO PI turnover Relative Mean Smax [8] | Muscarinic agonist activity by PI turnover [9] | Muscarinic agonist activity in vivo ([7]; in vivo) | Plasma concentration relative to compound 1 ([10]; after oral dosing to rats) | Brain Cmax (10 mg/kg po) 1 hr MCD-386 = 1.00 ([10]; rat brain, 10 mg/kg po, 1 hr, relative to MCD-386) | Penetration into the brain ([10]; rats after oral dosing) | Presence of metabolites (10 mg/kg po) [11] | M1/CHO PI turnover Relative Mean Smax ([9]; mean Smax relative to mean Smax for carbachol (100)) |
| --- | --- | --- | --- | --- | --- | --- | --- | --- | --- | --- | --- | --- | --- | --- | --- | --- | --- | --- | --- | --- |
|  | Cc1noc(C2CCCNC2)n1 (racemic) [compound 3, 3-Methyl-5-(piperidin-3-yl)-1,2,4-oxadiazole] | 2.56 | + (key: ++: potency > 10x CCh; +: potency 2-10x CCh; +/−: potency 0.5-2x CCh; −: potency < 0.5-0.1x CCh; −−: potency < 0.1x CCh; inactive: potency too low to determine) | +/− (key: ++: potency > 10x CCh; +: potency 2-10x CCh; +/−: potency 0.5-2x CCh; −: potency < 0.5-0.1x CCh; −−: potency < 0.1x CCh; inactive: potency too low to determine) | approximately 40% | approximately 40% | causes salivation | metabolized significantly less in human liver microsomes than in rat liver microsomes | unaffected by N-methylscopolamine | inhibited by scopolamine | equipotent to haloperidol |  |  |  |  |  |  |  |  |  |
| not selective for the M1 subtype | Cl.[2H]C([2H])([2H])c1noc(C2CN=CNC2)n1 (centres unmarked) [compound 4, 3-(d3-methyl)-5-(1,4,5,6-tetrahydropyrimidin-5-yl)-1,2,4-oxadiazole hydrochloride] |  |  |  |  |  |  |  |  |  |  | copious salivary flow, which was relatively short-lived | 92.6 | near full-agonist |  |  |  |  |  |  |
|  | [2H]C([2H])([2H])c1noc(C2CCCNC2)n1 (centres unmarked) [compound 7, 3-D3-Methyl-5-(piperidin-3-yl)-1,2,4-oxadiazole] |  |  |  |  |  |  | metabolized significantly less in human liver microsomes than in rat liver microsomes |  |  |  |  | 0 | relatively low | demonstrated muscarinic agonist activity in vivo | approximately 2.4 times | 2.16 | penetrated into the brain | No metabolites were identified and No | 2.7 |
